According to the NIST ThermoML archive (doi:10.1016/j.jct.2013.08.011):
± gives the expanded uncertainty stated by the source.

Key:
[1] = refractive index (Na D-line) (dimensionless); settings: 293.15 K; 101.33 kPa; Liquid; Standard Abbe refractometry
[2] = Liquid; for Normal boiling temperature: Ebulliometric method (Recirculating still); for mass density: 293.15 K, 101.33 kPa, Vibrating tube method

Row | refractive index [1] | Normal boiling temperature [2] [°C] | mass density [2] [kg/m3] | SMILES
1 | 1.4324 ± 0.0007 | 197.48 ± 0.2 | – | OCCO [1,2-ethanediol]
2 | 1.3445 ± 0.0007 | 81.50 ± 0.2 | 783.4 ± 2 | CC#N [acetonitrile]
3 | 1.3865 ± 0.0007 | 97.30 ± 0.2 | 804.1 ± 2 | CCCO [propan-1-ol]
